{"source": "the METLIN SMRT retention time set (Domingo-Almenara et al. 2019)", "test": "gradient 5% acetonitrile 3 min, to 50% in 2 min, to 85% in 15 min, held 3 min, 100 µL/min", "conditions": "column: Zorbax Extend-C18 2.1 x 50 mm; eluents: water / acetonitrile, 0.1% formic acid", "method_in_brief": "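Each retention time is based on an adduct peak selected computationally and verified by manual inspection. Measurements used HPLC–quadrupole time-of-flight mass spectrometry in positive and negative ionization mode on mixtures of ~100 pure standards. Chromatography ran on a Zorbax Extend-C18 column (2.1 × 50 mm, 1.8 μm) at 100 μL/min with water and acetonitrile, each containing 0.1% formic acid, and dead and dwell volumes of 40 μL and 900 μL.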"}
{"smiles": "COc1cccc(CNC(=O)C2CCCN(C(=O)c3[nH]c(C)c(C(=O)OC(C)C)c3C)C2)c1", "note": "(configuration not stated)", "values": [{"measurement": "RP-LC retention time", "value": 845, "unit": "s"}]}
{"smiles": "COc1cc2nccc(Oc3ccc(NC(=O)NC4CC4)c(Cl)c3)c2cc1C(N)=O", "values": [{"measurement": "RP-LC retention time", "value": 633, "unit": "s"}]}
{"smiles": "Cc1ccc(C(=O)NC2(c3nc(C)no3)CCCCC2)cc1", "values": [{"measurement": "RP-LC retention time", "value": 886, "unit": "s"}]}
{"smiles": "Cc1noc([C@@H]2CN(Cc3ccc(F)c(Cl)c3)C[C@H]2CO)n1", "values": [{"measurement": "RP-LC retention time", "value": 605, "unit": "s"}]}
{"smiles": "CC(C)(C)c1cc(C(=O)Nc2cc(F)cc(F)c2)nc2ccnn12", "values": [{"measurement": "RP-LC retention time", "value": 1360, "unit": "s"}]}
{"smiles": "COc1cccc(COC(=O)C2=CN(Cc3ccccc3)S(=O)(=O)N=C2C)c1", "values": [{"measurement": "RP-LC retention time", "value": 1090, "unit": "s"}]}
{"smiles": "CCS(=O)(=O)N1CC(=O)N(c2cc(Cl)ccc2C)C(C)(C(=O)NCc2ccccc2)C1", "note": "(configuration not stated)", "values": [{"measurement": "RP-LC retention time", "value": 919, "unit": "s"}]}
{"smiles": "CCCNC(=O)C1CCCN(c2ccc(SCC(=O)Nc3ccc(F)cc3)nn2)C1", "note": "(configuration not stated)", "values": [{"measurement": "RP-LC retention time", "value": 668, "unit": "s"}]}
{"smiles": "CC(=O)Nc1ccc(C(=O)N2CCN(c3cc(-c4ccc(Cl)cc4)[nH]n3)CC2)cc1", "values": [{"measurement": "RP-LC retention time", "value": 708, "unit": "s"}]}
{"smiles": "COc1cc(-c2ccc(F)cc2)nc2ccc(NS(=O)(=O)c3ccccc3)cc12", "values": [{"measurement": "RP-LC retention time", "value": 754, "unit": "s"}]}
{"smiles": "CCc1cccc(NC(=O)C2(Cc3ccccc3)CCCCC(=O)N2)c1", "note": "(configuration not stated)", "values": [{"measurement": "RP-LC retention time", "value": 931, "unit": "s"}]}
{"smiles": "COC(=O)c1cc(S(=O)(=O)N2CCCC2C(=O)Nc2nc(C)cs2)cn1C", "note": "(configuration not stated)", "values": [{"measurement": "RP-LC retention time", "value": 791, "unit": "s"}]}
{"smiles": "Cc1ccsc1C(=O)Nc1ccc2ncnc(N3CCCCC3)c2c1", "values": [{"measurement": "RP-LC retention time", "value": 687, "unit": "s"}]}
{"smiles": "CCCC(=O)Nc1ccc2c(c1)CN(C(=O)c1ccc(C#N)cc1)C(C(=O)N(C)C)C2", "note": "(configuration not stated)", "values": [{"measurement": "RP-LC retention time", "value": 681, "unit": "s"}]}
{"smiles": "CCS(=O)(=O)c1nc2ccc(NS(=O)(=O)c3cccc(F)c3)cc2s1", "values": [{"measurement": "RP-LC retention time", "value": 851, "unit": "s"}]}
{"smiles": "O=C(NCCN1CCCC1)C1CCN(c2nc3cccnc3s2)CC1", "values": [{"measurement": "RP-LC retention time", "value": 561, "unit": "s"}]}
{"smiles": "Cc1nn(-c2ccccc2)c(C)c1S(=O)(=O)N1CCC(C(=O)NCc2cccs2)CC1", "values": [{"measurement": "RP-LC retention time", "value": 876, "unit": "s"}]}
{"smiles": "CCOC(=O)c1c(C)c(CCC(=O)NCCN2CCCCC2)c(C)n1C", "values": [{"measurement": "RP-LC retention time", "value": 573, "unit": "s"}]}
{"smiles": "CCC(=O)N1CCc2cc(-c3ccc(C(=O)NCc4ccco4)cc3)ccc21", "values": [{"measurement": "RP-LC retention time", "value": 849, "unit": "s"}]}
{"smiles": "CCn1cc(C2=CCN(S(=O)(=O)c3ccc(F)cc3)CC2)c2cccnc21", "values": [{"measurement": "RP-LC retention time", "value": 1020, "unit": "s"}]}
{"smiles": "O=C(Nc1ccc(-c2ccn[nH]2)cc1)c1cccnc1", "values": [{"measurement": "RP-LC retention time", "value": 678, "unit": "s"}]}
{"smiles": "Cc1ccc2[nH]c(=O)c(CCC(=O)N3CCCN(c4ncccn4)CC3)cc2c1", "values": [{"measurement": "RP-LC retention time", "value": 654, "unit": "s"}]}
{"smiles": "CCc1ccc(S(=O)(=O)N2c3ccccc3NC3=C(C(=O)CCC3)C2c2ccco2)cc1", "note": "(configuration not stated)", "values": [{"measurement": "RP-LC retention time", "value": 923, "unit": "s"}]}
{"smiles": "Cc1ccc(=O)n(-c2ccccc2)c1", "values": [{"measurement": "RP-LC retention time", "value": 739, "unit": "s"}]}
{"smiles": "CCCCCNC(=O)C1CCN(c2nccnc2Sc2ccc(C)cc2)CC1", "values": [{"measurement": "RP-LC retention time", "value": 1100, "unit": "s"}]}
{"smiles": "COc1ccc(OC)c(S(=O)(=O)N2CCC(c3noc(-c4ccccc4C)n3)CC2)c1", "values": [{"measurement": "RP-LC retention time", "value": 1140, "unit": "s"}]}
{"smiles": "Cc1oc(-c2ccc(C(=O)NCCCN3CCCC3)cc2)nc1COc1ccccc1", "values": [{"measurement": "RP-LC retention time", "value": 715, "unit": "s"}]}
{"smiles": "CCOc1cccc(CN2CCc3nc(N4CCN(c5ccccc5)CC4)ncc3C2)c1", "values": [{"measurement": "RP-LC retention time", "value": 785, "unit": "s"}]}
{"smiles": "Cn1ncc2c(N3CCSCC3)nc(C(=O)N3CCN(Cc4ccccc4)CC3)nc21", "values": [{"measurement": "RP-LC retention time", "value": 600, "unit": "s"}]}
{"smiles": "CCCN(C(=O)Cc1c(C(=O)O)c(C)cn1CC)c1cccc(Cl)c1", "values": [{"measurement": "RP-LC retention time", "value": 767, "unit": "s"}]}
{"smiles": "O=C(NC1CC1)C1CCN(c2ccc(=O)n(-c3ccc(F)cc3)n2)CC1", "values": [{"measurement": "RP-LC retention time", "value": 671, "unit": "s"}]}
{"smiles": "Cc1ccccc1CN1N=C(C(=O)N2CCOCC2)S(=O)(=O)c2ccccc21", "values": [{"measurement": "RP-LC retention time", "value": 826, "unit": "s"}]}
{"smiles": "C(=N\\n1cnnc1)/c1ccc2c(c1)CCC2", "values": [{"measurement": "RP-LC retention time", "value": 858, "unit": "s"}]}
{"smiles": "O=C(Nc1ccc(Cl)cn1)C(=O)c1cccn1Cc1ccccc1", "values": [{"measurement": "RP-LC retention time", "value": 1180, "unit": "s"}]}
{"smiles": "COc1cccc(-c2nnc(Cc3nc(-c4ccc(OC)c(OC)c4)no3)o2)c1", "values": [{"measurement": "RP-LC retention time", "value": 894, "unit": "s"}]}
{"smiles": "CNC(=O)[C@@H]1CN(C(=O)c2cnccn2)C[C@H]1c1n[nH]c(C)n1", "values": [{"measurement": "RP-LC retention time", "value": 539, "unit": "s"}]}
{"smiles": "C=CCn1c(C)c(CC(=O)NCCOC)c(=O)n2nc(-c3ccccc3)nc12", "values": [{"measurement": "RP-LC retention time", "value": 673, "unit": "s"}]}
